{"source": "patent US8337851B2", "about": "“Methods of monitoring the efficacy of anti-CD40 antibodies in treating a subject for a CD40-expressing cancer” (Novartis AG, priority 2005, dated 2012)", "key": {"[1]": {"system": "CD40-expressing target cells", "assay": "ADCC activity of anti-CD40 antibodies (Table 1)", "format": "cell-based"}, "[2]": {"system": "primary cancer cells from NHL patients", "assay": "ADCC against primary cancer cells", "format": "cell-based, human", "conditions": "in vitro", "text": "4, 2003, Nov. 26, 2003, and Apr. 27, 2004, and assigned U.S. Patent Application Nos. 60/517,337, 60/525,579, and 60/565,710, respectively, and International Patent Application No. PCT/US2004/037152, also entitled “Antagonist, Anti-CD40 Monoclonal Antibodies and Methods for Their Use,” filed Nov. 4, 2004; the contents of each of which are herein incorporated by reference in their entirety."}, "[3]": {"system": "B-CLL cells from patients", "assay": "Western blot of apoptosis and survival biomarkers in sCD40L-stimulated B-CLL cells", "format": "cell-based, human", "protocol": "In these experiments, 1.0×10^6 B-CLL cells from patients were stimulated with 1 μg/ml sCD40L (Alexis Corporation, Bingham, Noffinghamshire, UK). […] Cleaved PARP, which is a biomarker of apoptosis, and Bcl-xl, Bcl-2, and cIAP1, which are biomarkers of survival, were detected in cell lysates by Western blot analysis using commercially available antibodies specific for these biomarkers.\nIn these experiments, 1.0×10^6B-CLL cells from patients were stimulated with 1 μg/ml sCD40L (Alexis Corp., Bingham, Nottinghamshire, UK). […] Cells were collected at 22-24 hours. Western blot analysis with antibodies to cleaved PARP, caspase-3, and Bcl-xl were conducted on cell lysates. Antibody against β-actin was used for detecting equal loading and transfer efficiency."}, "[4]": {"system": "B-CLL cells from patients", "assay": "Western blot of apoptosis markers in B-CLL cells not stimulated with CD40L", "format": "cell-based, human", "conditions": "10 μg/ml; 1, 4 and 24 hours; no CD40L", "protocol": "Cells were collected at 1, 4, and 24 hours. Western blot analysis with antibodies to cleaved PARP (apoptotic protein) and XIAP (anti-apoptotic protein) was conducted on cell lysates."}, "[5]": {"system": "B-CLL cells from patients", "assay": "Flow cytometry of cleaved PARP and TUNEL in B-CLL cells", "format": "cell-based, human", "conditions": "10 μg/ml with 1 μg/ml sCD40L, 24 hours", "protocol": "In this experiment, 0.4×10^6B-CLL cells from patients were stimulated with 1 μg/ml sCD40L (Alexis Corp., Bingham, Nottinghamshire, UK). CHIR12.12 (10 μg/ml) or control IgG was then added. […] After fixation and permeabilization, the cells were stained for cleaved PARP and TUNEL methods."}, "B-CLL cells [6]": {"system": "B-CLL cells", "assay": "p38 MAPK signaling in B-CLL cells, four-hour experiment", "format": "cell-based, human", "conditions": "4 hours", "protocol": "In the four-hour experiment, approximately 0.8×10^6 B-CLL cells per well were serum starved in 1% FBS-containing media for 4 hours. […] Cell lysates were collected before and 20 minutes after CD40L stimulation. Western blot analysis with antibodies against specific proteins shown were conducted, and equal loading was evaluated by probing with antibodies to total p38 (t-p38) and β-actin."}, "B-CLL cells [7]": {"system": "B-CLL cells", "assay": "p38 MAPK signaling and survival in B-CLL cells, 24-hour experiment", "format": "cell-based, human", "protocol": "In the 24-hour experiment, approximately 0.8×10^6 B-CLL cells per well were placed in full serum (10% FBS)-containing media for 24 hours. […] Western blot analysis with antibodies against specific proteins shown was conducted, and equal loading was evaluated by probing with antibodies against β-actin."}, "IM-9 cells": {"system": "IM-9 cells", "assay": "ADCC, Calcein release with human NK cells, IM-9", "format": "cell-based", "conditions": "NK:target 10 to 1, 4 hours, read-out: ED50 (percent specific lysis)", "protocol": "Human MM cell lines, KMS-12-BM, IM-9, and ARH-77, were washed 3 times using R2 medium (Pheno red-free RPMI with 2% FBS) and re-suspended in R10 medium (Pheno red-free RPMI with 10% FBS) at the density of 1×10^6/mL. Cells were labeled by adding Calcein AM (final concentration […]) and incubating for 30 minutes at 37° C. in a humidified atmosphere with 5% CO2. Purified human NK cells and Calcein-labeled target cells were mixed in R10 medium at the ratio of 10 to 1 (5×10^4 NK cells and 5×10^3 target cells in […]) and added in U-bottom 96 well plate (Packard's Instrument, Meriden, Conn.). […] 1% NP-40 was added in 3 wells for the maximum cell lysis. Cells were incubated for 4 hours without disturbance at 37° C. in a humidified atmosphere with 5% CO2. The plate was then centrifuged at 300 rpm without brake for 5 minutes. […] supernatant was transferred into a new 96 well plate. The released Calcein in the supernatant was measured in arbitrary fluorescent unit (AFU) at 485 nm excitation and 535 nm emission using Tecan SpectraFluor Plus (Tecan U.S., Inc., Research Triangle, N.C.). The percent of specific lysis was calculated as: 100×(AFU test−AFU spontaneous release)/(AFU maximal release−AFU spontaneous release).\nThe ED50 was determined for each cell line by plotting the log of antibody concentration versus the percent specific lysis (see FIG. 16)."}, "[8]": {"system": "IM-9 tumor cells (a human multiple myeloma cell line)", "assay": "Staged orthotopic IM-9 xenograft survival model", "format": "in vivo, SCID mice", "conditions": "0.1, 1 or 10 mg/kg i.p. once a week from 7 days after implantation", "protocol": "SCID mice were inoculated subcutaneously with IM-9 tumor cells (a human multiple myeloma cell line expressing both CD40 and CD20) in 50% […]™ at 5×10^6 cells per mouse. In unstaged models, treatment was initiated one day after tumor implantation. […] Alternatively, tumor-bearing mice were injected with bortezomib at 0.5 mg/kg or 1 mg/kg intravenously once a week. Data were analyzed using the log-rank test.\nIn staged models, treatment was initiated 7 days after tumor cell implantation. […] Alternatively, tumor-bearing mice were injected with bortezomib at 0.5 mg/kg intravenously. Data were analyzed using the log-rank test."}, "[9]": {"system": "CLL cells obtained from patients with CLL", "assay": "CD40L-induced production of VEGF in CLL cells", "format": "cell-based, human", "text": "In another experiment, CD40L-induced production of VEGF in normal B cells and CLL cells obtained from patients with CLL is examined in a manner similar to that described above."}, "primary B-CLL cells": {"system": "primary B-CLL cells", "assay": "Western blot of cPARP, Mcl-1, Bcl-xl in primary B-CLL cells", "format": "cell-based, human", "conditions": "10 μg/ml with rhsCD40L", "protocol": "Whole cell lysates were prepared in RIPA lysis buffer (1% Nonidet P-40, 0.5% sodium deoxycholate, 0.1% Sodium dodecylsulfate in 1× phosphate buffered saline, pH 7.2). 10-20 μg of protein per sample were resolved on a 10% Tris-Glycine gel and transferred to nitrocellulose membranes, and membranes were probed using mAbs specific to human cPARP, Mcl-1, or Bcl-xl. The membranes were stripped and re-probed for β-actin and developed using ECL."}, "[10]": {"conditions": "patients #4 and #21, 10 μg/ml, 24 hours, 1 μg/ml sCD40L"}}, "data": [{"substance": "CHIR-12.12: fully human anti-CD40 monoclonal antibody of the IgG1 isotype from hybridoma cell line 153.8E2.D10.D6.12.12 (ATCC PTA-5543)", "values": [{"measurement": "killing of CD40-expressing target cells by ADCC", "setting": "[1]", "value": "able to kill CD40-expressing target cells"}, {"measurement": "killing of primary cancer cells by ADCC", "setting": "[2]", "value": "kill primary cancer cells from NHL patients by ADCC"}, {"measurement": "cleaved PARP, caspase-3 and Bcl-xl, dose response (Western blot)", "setting": "[3]; 0-20 μg/ml, 22-24 hours, 1 μg/ml sCD40L", "value": "induction of cleaved PARP and caspase-3 as well as reduction of Bcl-xl in a dose-dependent manner"}, {"measurement": "lowest dose with effect on cleaved PARP, caspase-3 and Bcl-xl", "setting": "[3]; 22-24 hours, 1 μg/ml sCD40L", "value": "≥ 0.01", "unit": "µg/mL"}, {"measurement": "XIAP and Bcl-2 (Western blot)", "setting": "[3]; patient #30, vs control IgG", "value": "reduced the expression of XIAP and Bcl-2"}, {"measurement": "cleaved PARP (Western blot)", "setting": "[3]; patient #30, vs control IgG", "value": "induced the expression of cleaved PARP"}, {"measurement": "cleaved PARP (Western blot)", "setting": "[3]; patient #31, vs control IgG", "value": "induced the expression of cleaved PARP"}, {"measurement": "cyclin D1 and Bcl-xl (Western blot)", "setting": "[3]; patient #31, vs control IgG", "value": "reduced the expression of cyclin D1 and Bcl-xl"}, {"measurement": "Bcl-2 and TRAIL level (Western blot)", "setting": "[3]; [10]", "value": "no changes of Bcl-2 and TRAIL level"}, {"measurement": "Bcl-xl, XIAP and cIAP1 (Western blot)", "setting": "[3]; [10]", "value": "reduction of Bcl-xl, XIAP and cIAP1"}, {"measurement": "cleaved PARP (Western blot)", "setting": "[3]; patients #4 and #21, 10 μg/ml, 24 hours, 1 μg/ml sCD40L, vs control IgG", "value": "induction of cleaved PARP"}, {"measurement": "apoptosis without CD40L stimulation (cleaved PARP, XIAP)", "setting": "[4]", "value": "did not trigger additional apoptosis of B-CLL cells"}, {"measurement": "percentage of cells positive for cleaved PARP or TUNEL", "setting": "[5]", "value": "the percentage of positive cells for cleaved PARP or TUNEL returned to the levels seen without sCD40L stimulation"}, {"measurement": "Phospho-IKKα/β activation by CD40L", "setting": "B-CLL cells [6]; 10 μg/mL", "value": "inhibited"}, {"measurement": "p38 activation by CD40L", "setting": "B-CLL cells [6]; SB203580 30 and 60 μM, CHIR-12.12 10 μg/mL", "value": "fully inhibited"}, {"measurement": "CD40 expression", "setting": "B-CLL cells [7]", "value": "inhibited"}, {"measurement": "cleaved Caspase-3", "setting": "B-CLL cells [7]; CD40L", "value": "induced to a lesser extent"}, {"measurement": "p38 phosphorylation", "setting": "B-CLL cells [7]; CD40L", "value": "similarly blocked"}, {"measurement": "cleaved-PARP", "setting": "B-CLL cells [7]; SB203580 30 and 60 μM, CHIR-12.12 10 μg/mL, CD40L", "value": "significantly induced"}, {"measurement": "Bcl-xl expression", "setting": "B-CLL cells [7]; especially 60 μM SB203580 and 10 μg/ml CHIR-12.12", "value": "blocked"}, {"measurement": "EC50", "setting": "IM-9 cells", "value": 5.9, "unit": "pM"}, {"measurement": "survival of tumor-bearing mice", "setting": "[8]", "value": "prolonged survival of tumor-bearing mice"}, {"measurement": "CD40L-induced production of VEGF", "setting": "[9]", "value": "inhibit CD40L-induced production of VEGF"}, {"measurement": "cPARP levels and Mcl-1 and Bcl-xl expression (Western blot)", "setting": "primary B-CLL cells", "value": "blocked the CD40L-mediated decrease of cPARP levels and CD40L-mediated increase of Mcl-1 and Bcl-xl expression"}]}]}
